From the kinase profiling compilation of Christmann-Franck et al. (2016)

Tests used:
Assay in all cases: KINOMEscan competition binding
Details in all cases: compound 10.0 µM
BMPR2 (human) = BMPR2 (human) (UniProt Q13873)
CDK7 (human) = CDK7 (human) (UniProt P50613)
CDKL5 (human) = CDKL5 (human) (UniProt O76039)
CLK1 (human) = CLK1 (human) (UniProt P49759)
CSNK1E (human) = CSNK1E (human) (UniProt P49674)
CSNK1G2 (human) = CSNK1G2 (human) (UniProt P78368)
EPHA3 (human) = EPHA3 (human) (UniProt P29320)
EPHA5 (human) = EPHA5 (human) (UniProt P54756)
EPHB6 (human) = EPHB6 (human) (UniProt O15197)
ERN1 (human) = ERN1 (human) (UniProt O75460)
FGR (human) = FGR (human) (UniProt P09769)
FLT3 (human) = FLT3 (human) (UniProt P36888)
FLT3 (human), sequence (P36888 whole entry, looked up): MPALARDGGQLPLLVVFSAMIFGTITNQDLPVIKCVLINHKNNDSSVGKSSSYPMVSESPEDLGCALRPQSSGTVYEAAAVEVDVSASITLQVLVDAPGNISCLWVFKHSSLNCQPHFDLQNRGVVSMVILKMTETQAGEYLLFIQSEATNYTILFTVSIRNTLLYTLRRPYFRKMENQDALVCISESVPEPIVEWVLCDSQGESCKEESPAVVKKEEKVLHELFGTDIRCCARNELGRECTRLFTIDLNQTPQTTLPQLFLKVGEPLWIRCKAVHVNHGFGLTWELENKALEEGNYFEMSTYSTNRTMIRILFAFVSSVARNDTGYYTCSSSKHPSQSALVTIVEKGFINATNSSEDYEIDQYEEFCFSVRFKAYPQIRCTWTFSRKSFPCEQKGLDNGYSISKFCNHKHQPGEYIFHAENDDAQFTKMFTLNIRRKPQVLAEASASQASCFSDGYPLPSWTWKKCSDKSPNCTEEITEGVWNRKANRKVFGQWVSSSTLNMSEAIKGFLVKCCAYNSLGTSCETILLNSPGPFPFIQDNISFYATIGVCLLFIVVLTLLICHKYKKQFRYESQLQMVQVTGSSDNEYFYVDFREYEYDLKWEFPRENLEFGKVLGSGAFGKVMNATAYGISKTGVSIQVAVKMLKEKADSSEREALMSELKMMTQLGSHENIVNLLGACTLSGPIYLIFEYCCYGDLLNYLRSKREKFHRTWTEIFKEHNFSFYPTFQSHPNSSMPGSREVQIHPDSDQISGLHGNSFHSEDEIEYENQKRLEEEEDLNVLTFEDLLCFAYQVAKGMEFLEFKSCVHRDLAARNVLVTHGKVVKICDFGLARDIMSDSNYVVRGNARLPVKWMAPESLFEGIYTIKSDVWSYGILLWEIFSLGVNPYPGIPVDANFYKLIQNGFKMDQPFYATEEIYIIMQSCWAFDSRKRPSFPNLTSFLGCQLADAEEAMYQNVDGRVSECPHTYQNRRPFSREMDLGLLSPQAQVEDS

GRK7 (human) = GRK7 (human) (UniProt Q8WTQ7)
GSK3B (human) = GSK3B (human) (UniProt P49841)
HCK (human) = HCK (human) (UniProt P08631)
INSR (human) = INSR (human) (UniProt P06213)
INSR (human), sequence (P06213 whole entry, looked up): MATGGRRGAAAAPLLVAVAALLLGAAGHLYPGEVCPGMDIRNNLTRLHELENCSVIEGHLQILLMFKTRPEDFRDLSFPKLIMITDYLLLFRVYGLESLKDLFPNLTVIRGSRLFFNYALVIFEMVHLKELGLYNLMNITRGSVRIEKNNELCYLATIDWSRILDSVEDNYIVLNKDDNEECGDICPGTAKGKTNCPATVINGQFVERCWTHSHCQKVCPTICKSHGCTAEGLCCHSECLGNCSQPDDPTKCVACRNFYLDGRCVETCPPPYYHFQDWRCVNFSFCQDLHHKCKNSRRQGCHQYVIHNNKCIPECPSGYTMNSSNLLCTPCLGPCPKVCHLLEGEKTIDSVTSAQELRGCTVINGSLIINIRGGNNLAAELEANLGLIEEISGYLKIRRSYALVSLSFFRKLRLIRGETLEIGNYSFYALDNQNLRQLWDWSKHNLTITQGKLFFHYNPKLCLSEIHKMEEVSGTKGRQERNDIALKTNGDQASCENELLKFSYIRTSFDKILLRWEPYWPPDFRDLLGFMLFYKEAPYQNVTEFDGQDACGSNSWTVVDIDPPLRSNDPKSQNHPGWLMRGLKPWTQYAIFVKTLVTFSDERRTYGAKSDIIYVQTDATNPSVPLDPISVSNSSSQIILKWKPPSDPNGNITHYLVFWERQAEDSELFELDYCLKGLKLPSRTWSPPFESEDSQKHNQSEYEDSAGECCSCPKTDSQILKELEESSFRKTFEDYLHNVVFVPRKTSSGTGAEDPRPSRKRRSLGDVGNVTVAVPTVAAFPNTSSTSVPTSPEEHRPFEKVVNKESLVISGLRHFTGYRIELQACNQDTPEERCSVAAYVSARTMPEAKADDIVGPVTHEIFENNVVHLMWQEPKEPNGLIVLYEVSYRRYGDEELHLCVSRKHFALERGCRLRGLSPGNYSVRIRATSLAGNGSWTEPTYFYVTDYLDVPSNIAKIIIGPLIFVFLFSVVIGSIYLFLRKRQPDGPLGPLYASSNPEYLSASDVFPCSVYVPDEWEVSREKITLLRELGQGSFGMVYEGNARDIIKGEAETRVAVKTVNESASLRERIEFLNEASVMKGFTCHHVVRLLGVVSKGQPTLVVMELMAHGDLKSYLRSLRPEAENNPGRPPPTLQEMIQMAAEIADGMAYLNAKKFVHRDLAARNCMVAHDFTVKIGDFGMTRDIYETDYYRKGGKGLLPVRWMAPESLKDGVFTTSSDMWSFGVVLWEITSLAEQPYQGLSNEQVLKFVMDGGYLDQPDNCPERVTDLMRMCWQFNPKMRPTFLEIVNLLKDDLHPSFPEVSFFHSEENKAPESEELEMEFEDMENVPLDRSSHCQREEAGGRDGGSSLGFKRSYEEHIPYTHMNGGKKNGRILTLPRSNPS

ITK (human) = ITK (human) (UniProt Q08881)
[1] = target: JAK1 JH2 pseudokinase (human) (UniProt P23458)
LATS1 (human) = LATS1 (human) (UniProt O95835)
LIMK2 (human) = LIMK2 (human) (UniProt P53671)
MAP3K13 (human) = MAP3K13 (human) (UniProt O43283)
MAPK12 (human) = MAPK12 (human) (UniProt P53778)
MAPK12 (human), sequence (P53778 whole entry, looked up): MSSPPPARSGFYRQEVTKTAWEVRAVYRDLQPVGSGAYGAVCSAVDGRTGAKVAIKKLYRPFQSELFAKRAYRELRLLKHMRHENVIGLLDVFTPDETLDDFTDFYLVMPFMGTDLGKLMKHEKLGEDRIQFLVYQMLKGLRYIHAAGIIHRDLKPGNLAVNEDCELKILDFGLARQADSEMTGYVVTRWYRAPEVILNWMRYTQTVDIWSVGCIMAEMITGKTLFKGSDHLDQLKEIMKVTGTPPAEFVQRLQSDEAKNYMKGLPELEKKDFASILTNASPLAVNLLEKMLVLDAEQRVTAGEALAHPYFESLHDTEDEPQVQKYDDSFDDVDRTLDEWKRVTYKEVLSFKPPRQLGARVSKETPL

[2] = tested on: MET (human), P08581 [Y1235D]
MST4 (human) = MST4 (human) (UniProt Q9P289)
MST4 (human), sequence (Q9P289 whole entry, looked up): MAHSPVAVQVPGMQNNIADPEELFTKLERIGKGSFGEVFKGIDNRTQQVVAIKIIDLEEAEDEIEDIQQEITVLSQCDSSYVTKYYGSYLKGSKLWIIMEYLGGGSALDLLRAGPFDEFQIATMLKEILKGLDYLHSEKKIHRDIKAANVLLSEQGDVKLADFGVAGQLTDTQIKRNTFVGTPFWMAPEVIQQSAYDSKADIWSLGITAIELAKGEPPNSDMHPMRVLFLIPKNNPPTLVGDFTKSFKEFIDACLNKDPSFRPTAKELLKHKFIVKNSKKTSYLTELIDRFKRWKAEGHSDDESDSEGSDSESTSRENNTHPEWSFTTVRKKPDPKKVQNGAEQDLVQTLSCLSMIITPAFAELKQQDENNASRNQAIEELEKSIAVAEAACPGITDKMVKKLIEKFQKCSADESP

MYO3A (human) = MYO3A (human) (UniProt Q8NEV4)
NEK7 (human) = NEK7 (human) (UniProt Q8TDX7)
NUAK2 (human) = NUAK2 (human) (UniProt Q9H093)
PAK2 (human) = PAK2 (human) (UniProt Q13177)
PIK3C2G (human) = PIK3C2G (human) (UniProt O75747)
[3] = tested on: PIK3CA (human), P42336 [C420R]
[4] = tested on: PIK3CA (human), P42336 [E542K]
PIK3CA (human), P42336 [E542K], sequence (P42336 whole entry E542K, looked up): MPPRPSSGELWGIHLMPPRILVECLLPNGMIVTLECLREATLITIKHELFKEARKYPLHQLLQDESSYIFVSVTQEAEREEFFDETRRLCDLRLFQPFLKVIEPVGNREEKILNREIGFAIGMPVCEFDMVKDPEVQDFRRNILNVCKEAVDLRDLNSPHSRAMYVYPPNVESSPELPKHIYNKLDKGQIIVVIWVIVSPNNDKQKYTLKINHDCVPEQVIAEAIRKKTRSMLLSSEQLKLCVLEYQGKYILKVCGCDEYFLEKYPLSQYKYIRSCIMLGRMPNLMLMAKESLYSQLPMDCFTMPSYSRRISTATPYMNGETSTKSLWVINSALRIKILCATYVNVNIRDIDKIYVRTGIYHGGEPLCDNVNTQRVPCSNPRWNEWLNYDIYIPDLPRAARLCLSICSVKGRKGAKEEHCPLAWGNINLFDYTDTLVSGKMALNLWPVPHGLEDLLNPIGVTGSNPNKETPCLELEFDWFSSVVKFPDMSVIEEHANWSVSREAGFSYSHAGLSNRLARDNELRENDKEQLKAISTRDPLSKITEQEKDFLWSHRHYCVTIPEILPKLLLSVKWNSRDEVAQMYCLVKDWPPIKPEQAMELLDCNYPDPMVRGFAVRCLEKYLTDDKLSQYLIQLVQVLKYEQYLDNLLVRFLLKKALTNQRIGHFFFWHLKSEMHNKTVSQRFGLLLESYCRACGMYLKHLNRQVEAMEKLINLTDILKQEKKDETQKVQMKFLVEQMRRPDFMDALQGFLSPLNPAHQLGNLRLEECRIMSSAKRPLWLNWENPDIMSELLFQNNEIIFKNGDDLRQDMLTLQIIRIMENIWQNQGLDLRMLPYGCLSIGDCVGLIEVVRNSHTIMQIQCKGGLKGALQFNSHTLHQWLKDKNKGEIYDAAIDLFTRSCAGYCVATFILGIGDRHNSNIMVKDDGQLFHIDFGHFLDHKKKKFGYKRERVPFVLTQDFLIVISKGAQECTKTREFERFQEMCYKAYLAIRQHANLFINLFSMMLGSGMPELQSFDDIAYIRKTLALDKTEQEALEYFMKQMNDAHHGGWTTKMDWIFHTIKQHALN

PIM1 (human) = PIM1 (human) (UniProt P11309)
PRKACA (human) = PRKACA (human) (UniProt P17612)
PRKD2 (human) = PRKD2 (human) (UniProt Q9BZL6)
PRKG2 (human) = PRKG2 (human) (UniProt Q13237)
RIOK2 (human) = RIOK2 (human) (UniProt Q9BVS4)
SNRK (human) = SNRK (human) (UniProt Q9NRH2)
TLK2 (human) = TLK2 (human) (UniProt Q86UE8)
TNIK (human) = TNIK (human) (UniProt Q9UKE5)
TYRO3 (human) = TYRO3 (human) (UniProt Q06418)

CLK1 (human), sequence (P49759 whole entry, looked up): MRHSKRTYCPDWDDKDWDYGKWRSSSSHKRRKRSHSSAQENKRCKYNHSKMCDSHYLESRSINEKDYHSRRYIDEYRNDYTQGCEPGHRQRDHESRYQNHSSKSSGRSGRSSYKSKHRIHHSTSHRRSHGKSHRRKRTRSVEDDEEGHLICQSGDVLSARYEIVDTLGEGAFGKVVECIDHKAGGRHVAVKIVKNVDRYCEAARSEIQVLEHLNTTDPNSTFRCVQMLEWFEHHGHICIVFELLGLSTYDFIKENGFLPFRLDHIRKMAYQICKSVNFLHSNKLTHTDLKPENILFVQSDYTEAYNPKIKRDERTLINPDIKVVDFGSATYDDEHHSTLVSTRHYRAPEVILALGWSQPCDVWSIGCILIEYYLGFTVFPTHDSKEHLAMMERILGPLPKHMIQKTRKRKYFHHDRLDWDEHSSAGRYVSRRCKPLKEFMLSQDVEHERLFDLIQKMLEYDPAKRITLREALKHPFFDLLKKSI
CDK7 (human), sequence (P50613 whole entry, looked up): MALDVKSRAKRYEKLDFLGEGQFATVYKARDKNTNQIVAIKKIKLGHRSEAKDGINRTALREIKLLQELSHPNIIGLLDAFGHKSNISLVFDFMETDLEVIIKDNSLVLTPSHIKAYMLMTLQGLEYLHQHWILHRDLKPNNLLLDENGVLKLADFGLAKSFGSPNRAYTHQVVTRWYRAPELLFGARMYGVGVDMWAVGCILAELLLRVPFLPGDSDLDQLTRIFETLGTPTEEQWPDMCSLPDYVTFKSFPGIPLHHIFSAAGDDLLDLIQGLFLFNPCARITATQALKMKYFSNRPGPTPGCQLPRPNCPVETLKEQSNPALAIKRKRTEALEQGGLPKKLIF

Q: `CCC(=O)N1CCN(c2ccc(-n3c(=O)ccc4cnc5ccc(-c6cnc7ccccc7c6)cc5c43)cc2C(F)(F)F)CC1` was tested. Which kinase still bound, per cent of control (BMPR2 (human)) did it give?
A: Its kinase still bound, per cent of control is 85%.

Q: And the per cent of control (CDK7 (human))?
A: The per cent of control was 57%.

Q: What about the per cent of control (CDKL5 (human)) of the same compound?
A: Its per cent of control is 100%.

Q: And the kinase still bound, per cent of control (CLK1 (human))?
A: Its kinase still bound, per cent of control is 49%.

Q: And the kinase still bound, per cent of control (CSNK1E (human))?
A: Its kinase still bound, per cent of control is 59%.

Q: And the kinase still bound, per cent of control (CSNK1G2 (human))?
A: Its kinase still bound, per cent of control is 100%.

Q: What about the kinase still bound, per cent of control (EPHA3 (human)) of the same compound?
A: Its kinase still bound, per cent of control is 70%.

Q: What about the kinase still bound, per cent of control (EPHA5 (human)) of the same compound?
A: Its kinase still bound, per cent of control is 100%.

Q: And the kinase still bound, per cent of control (EPHB6 (human))?
A: Its kinase still bound, per cent of control is 80%.

Q: And the kinase still bound, per cent of control (ERN1 (human))?
A: The kinase still bound, per cent of control was 100%.

Q: And the kinase still bound, per cent of control (FGR (human))?
A: Its kinase still bound, per cent of control is 78%.

Q: What about the kinase still bound, per cent of control (FLT3 (human)) of the same compound?
A: The kinase still bound, per cent of control was 16%.

Q: What about the kinase still bound, per cent of control (GRK7 (human)) of the same compound?
A: Its kinase still bound, per cent of control is 100%.

Q: What about the kinase still bound, per cent of control (GSK3B (human)) of the same compound?
A: Its kinase still bound, per cent of control is 100%.

Q: And the kinase still bound, per cent of control (HCK (human))?
A: Its kinase still bound, per cent of control is 77%.

Q: And the kinase still bound, per cent of control (INSR (human))?
A: Its kinase still bound, per cent of control is 7.6%.

Q: And the kinase still bound, per cent of control (ITK (human))?
A: Its kinase still bound, per cent of control is 100%.

Q: What about the kinase still bound, per cent of control [1] of the same compound?
A: Its kinase still bound, per cent of control is 76%.

Q: And the kinase still bound, per cent of control (LATS1 (human))?
A: The kinase still bound, per cent of control was 100%.

Q: And the kinase still bound, per cent of control (LIMK2 (human))?
A: The kinase still bound, per cent of control was 4.8%.

Q: What about the kinase still bound, per cent of control (MAP3K13 (human)) of the same compound?
A: Its kinase still bound, per cent of control is 100%.

Q: What about the kinase still bound, per cent of control (MAPK12 (human)) of the same compound?
A: The kinase still bound, per cent of control was 71%.

Q: What about the kinase still bound, per cent of control [2] of the same compound?
A: The kinase still bound, per cent of control was 100%.

Q: What about the kinase still bound, per cent of control (MST4 (human)) of the same compound?
A: Its kinase still bound, per cent of control is 89%.

Q: And the kinase still bound, per cent of control (MYO3A (human))?
A: Its kinase still bound, per cent of control is 100%.

Q: And the kinase still bound, per cent of control (NEK7 (human))?
A: The kinase still bound, per cent of control was 90%.

Q: What about the kinase still bound, per cent of control (NUAK2 (human)) of the same compound?
A: Its kinase still bound, per cent of control is 100%.

Q: What about the kinase still bound, per cent of control (PAK2 (human)) of the same compound?
A: The kinase still bound, per cent of control was 100%.

Q: And the kinase still bound, per cent of control (PIK3C2G (human))?
A: The kinase still bound, per cent of control was 11%.

Q: And the kinase still bound, per cent of control [3]?
A: Its kinase still bound, per cent of control is 0.7%.

Q: And the kinase still bound, per cent of control [4]?
A: The kinase still bound, per cent of control was 1%.

Q: And the kinase still bound, per cent of control (PIM1 (human))?
A: The kinase still bound, per cent of control was 80%.

Q: And the per cent of control (PRKACA (human))?
A: The per cent of control was 79%.

Q: And the kinase still bound, per cent of control (PRKD2 (human))?
A: The kinase still bound, per cent of control was 100%.

Q: And the kinase still bound, per cent of control (PRKG2 (human))?
A: Its kinase still bound, per cent of control is 78%.

Q: And the kinase still bound, per cent of control (RIOK2 (human))?
A: The kinase still bound, per cent of control was 24%.

Q: What about the kinase still bound, per cent of control (SNRK (human)) of the same compound?
A: The kinase still bound, per cent of control was 60%.

Q: What about the kinase still bound, per cent of control (TLK2 (human)) of the same compound?
A: Its kinase still bound, per cent of control is 100%.

Q: And the kinase still bound, per cent of control (TNIK (human))?
A: The kinase still bound, per cent of control was 39%.

Q: And the kinase still bound, per cent of control (TYRO3 (human))?
A: Its kinase still bound, per cent of control is 31%.
